# From paper PMC6462224 (Nature chemical biology, 2018)
# Target: T1, M2R(S110R)_delta_ICL3 (Homo sapiens, UniProt P08172, DEL233-359/S110R)
# T1 sequence (P08172 with tags, fused parts or gaps S110R/DEL233-359): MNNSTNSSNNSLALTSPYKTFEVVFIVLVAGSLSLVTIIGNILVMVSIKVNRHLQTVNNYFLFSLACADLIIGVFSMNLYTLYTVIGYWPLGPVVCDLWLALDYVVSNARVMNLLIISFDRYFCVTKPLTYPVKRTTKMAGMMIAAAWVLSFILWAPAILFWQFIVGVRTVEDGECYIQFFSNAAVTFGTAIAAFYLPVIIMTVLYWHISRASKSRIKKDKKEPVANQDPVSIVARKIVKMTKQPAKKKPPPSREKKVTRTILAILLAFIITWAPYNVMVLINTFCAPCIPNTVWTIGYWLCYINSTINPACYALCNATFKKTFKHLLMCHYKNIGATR
# Assay: Inhibition of [3H]NMS binding to M2R
# Conditions: S110R vs wild type, Fig. 2e
smiles,measurement,value
C[N+](C)(C)CC#CCOC1=NOCC1 [Iperoxo],reduction of affinity in S110R mutant relative to the wild type,~1000 fold
